System: angiogenesis
Test: not given
Conditions: J. Cell Biol. 1991, 115[3 Pt 2], 402a; cited from earlier work

Row | SMILES | angiogenesis in vitro
1 | N=C(N)NC(=O)c1nc(Cl)c(N)nc1N [Amiloride] | inhibit

System: tumor metastasis
Test: not given
Conditions: Anticancer Res. 1988, 8, 1373-1376; cited from earlier work

Row | SMILES | tumor metastasis in vivo
2 | N=C(N)NC(=O)c1nc(Cl)c(N)nc1N [Amiloride] | inhibit

Biological target: T1, urokinase enzyme Abbokinase (Homo sapiens, UniProt P00749)
T1 construct: purchased Abbott Laboratories, Abbott Park, IL
Test: Inhibition of urokinase on chromogenic substrate S-2444
Type: biochemical
Conditions: not given

Row | SMILES | Ki [nM]
3 | COC/C=C/c1cc(C2CC2c2ccc3c(c2)C(C(C)C)N(C)CC3)cc2ccc(C(=N)N)cc12 (centres unmarked) [Example 5, 6-(2-(1-isopropyl-2-methyl-1,2,3,4-tetrahydro-7-isoquinolinyl)cyclopropyl)-8-((1E)-3-methoxy-1-propenyl)-2-naphthalenecarboximidamide] | 21

Same assay, conditions: read-out: Ki

Row | SMILES | Ki [nM]
4 | CC(C)C1=NCCc2ccc(C=Cc3cc(Br)c4cc(C(=N)N)ccc4c3)cc21 [Example 22, 8-bromo-6-(2-(1-isopropyl-3,4-dihydro-7-isoquinolinyl)ethenyl)-2-naphthalenecarboximidamide] | 291
5 | CCC1(CC)CN=C(C(C)C)c2ccc(C3CC3c3ccc4cc(C(=N)N)ccc4c3)cc21 (centres unmarked) [Example 31, 6-(2-(4,4-diethyl-1-isopropyl-3,4-dihydro-6-isoquinolinyl)cyclopropyl)-2-naphthalenecarboximidamide] | 350
6 | CCC1CN=C(C(C)C)c2ccc(C3CC3c3ccc4cc(C(=N)N)ccc4c3)cc21 (centres unmarked) [Example 54, 6-(2-(4-ethyl-1-isopropyl-3,4-dihydro-6-isoquinolinyl)cyclopropyl)-2-naphthalenecarboximidamide] | 343
7 | N=C(N)c1ccc2cc(C3CC3c3ccc4c(c3)CCNC4)ccc2c1 (centres unmarked) [Example 46, 6-(2-(1,2,3,4-tetrahydro-6-isoquinolinyl)cyclopropyl)-2-naphthalenecarboximidamide] | 180
8 | CCC1CN(C(C)=O)Cc2ccc(C3CC3c3ccc4cc(C(=N)N)ccc4c3)cc21 (centres unmarked) [Example 52, 6-(2-(2-acetyl-4-ethyl-1,2,3,4-tetrahydro-6-isoquinolinyl)cyclopropyl)-2-naphthalenecarboximidamide] | 530
9 | CCC1CN(C)Cc2ccc(C3CC3c3ccc4cc(C(=N)N)ccc4c3)cc21 (centres unmarked) [Example 51, 6-(2-(4-ethyl-2-methyl-1,2,3,4-tetrahydro-6-isoquinolinyl)cyclopropyl)-2-naphthalenecarboximidamide] | 123
10 | COC(=O)N1CCc2ccc(C=Cc3ccc4cc(C(=N)N)ccc4c3)cc2C1C(C)C (centres unmarked) [Example 17, methyl 7-(2-(6-(amino(imino)methyl)-2-naphthyl)ethenyl)-1-isopropyl-3,4-dihydro-2(1H)-isoquinolinecarboxylate] | 250
11 | CC(C)C1c2cc(C3CC3c3ccc4cc(C(=N)N)ccc4c3)ccc2CCN1Cc1ccccc1 (centres unmarked) [Example 19, 6-(2-(2-benzyl-1-isopropyl-1,2,3,4-tetrahydro-7-isoquinolinyl)cyclopropyl)-2-naphthalenecarboximidamide] | 144

The next lines start with the values.

Row | Ki [nM] | SMILES
12 | 10 | CC(C)/C=C/c1cc(C2CC2c2ccc3c(c2)C(C2CCCCC2)=NCC3)cc2ccc(C(=N)N)cc12 (centres unmarked) [Example 58, 6-(2-(1-cyclohexyl-3,4-dihydro-7-isoquinolinyl)cyclopropyl)-8-((1E)-3-methyl-1-butenyl)-2-naphthalenecarboximidamide]
13 | 45 | CC(C)C1=NCCc2ccc(C3CC3c3cc(C4CCOC4)c4cc(C(=N)N)ccc4c3)cc21 (centres unmarked) [Example 7, 6-(2-(1-isopropyl-3,4-dihydro-7-isoquinolinyl)cyclopropyl)-8-tetrahydro-3-furanyl-2-naphthalenecarboximidamide]
14 | 21 | CC(C)/C=C/c1cc(C2CC2c2ccc3c(c2)C(C(C)C)=NCC3)cc2ccc(C(=N)N)cc12 (centres unmarked) [Example 8, 6-(2-(1-isopropyl-3,4-dihydro-7-isoquinolinyl)cyclopropyl)-8-((1E)-3-methyl-1-butenyl)-2-naphthalenecarboximidamide]
15 | 25 | CC(C)C1c2cc(C3CC3c3cc(-c4ccoc4)c4cc(C(=N)N)ccc4c3)ccc2CCN1C (centres unmarked) [Example 3, 8-(3-furyl)-6-(2-(1-isopropyl-2-methyl-1,2,3,4-tetrahydro-7-isoquinolinyl)cyclopropyl)-2-naphthalenecarboximidamide]
16 | 63 | C=CCN1CCc2ccc(C3CC3c3ccc4cc(C(=N)N)ccc4c3)cc2C1C(C)C (centres unmarked) [Example 25, 6-(2-(2-allyl-1-isopropyl-1,2,3,4-tetrahydro-7-isoquinolinyl)cyclopropyl)-2-naphthalenecarboximidamide]
17 | 130 | CC(C)C1c2cc(C3CC3c3ccc4cc(C(=N)N)ccc4c3)ccc2CCN1C(C)C (centres unmarked) [Example 27, 6-(2-(1,2-diisopropyl-1,2,3,4-tetrahydro-7-isoquinolinyl)cyclopropyl)-2-naphthalenecarboximidamide]
18 | 10 | CC(C)/C=C/c1cc(C2CC2c2ccc3c(c2)C(C2CCCCC2)N(C)CC3)cc2ccc(C(=N)N)cc12 (centres unmarked) [Example 59, 6-(2-(1-cyclohexyl-2-methyl-1,2,3,4-tetrahydro-7-isoquinolinyl)cyclopropyl)-8-((1E)-3-methyl-1-butenyl)-2-naphthalenecarboximidamide]
19 | 25 | CN1CCc2ccc(C3CC3c3cc(Br)c4cc(C(=N)N)ccc4c3)cc2C1C1CCCCC1 (centres unmarked) [Example 57, 8-bromo-6-(2-(1-cyclohexyl-2-methyl-1,2,3,4-tetrahydro-7-isoquinolinyl)cyclopropyl)-2-naphthalenecarboximidamide]
20 | 160 | CC(=O)N1CCc2ccc(C3CC3c3ccc4cc(C(=N)N)ccc4c3)cc2C1C(C)C (centres unmarked) [Example 15, 6-(2-(2-acetyl-1-isopropyl-1,2,3,4-tetrahydro-7-isoquinolinyl)cyclopropyl)-2-naphthalenecarboximidamide]
21 | 128 | CCCC1c2cc(C3CC3c3ccc4cc(C(=N)N)ccc4c3)ccc2CCN1C (centres unmarked) [Example 11, 6-(2-(2-methyl-1-propyl-1,2,3,4-tetrahydro-7-isoquinolinyl)cyclopropyl)-2-naphthalenecarboximidamide]
22 | 128 | CC(C)C1=NCCc2ccc(C3CC3c3cc(Br)c4cc(C(=N)N)ccc4c3)cc21 (centres unmarked) [Example 35, 8-bromo-6-(2-(1-isopropyl-3,4-dihydro-7-isoquinolinyl)cyclopropyl)-2-naphthalenecarboximidamide]
23 | 810 | COc1ccccc1-c1cc(C2CC2c2ccc3c(c2)C(C(C)C)N(C)CC3)cc2ccc(C(=N)N)cc12 (centres unmarked) [Example 40, 6-(2-(1-isopropyl-2-methyl-1,2,3,4-tetrahydro-7-isoquinolinyl)cyclopropyl)-8-(2-methoxyphenyl)-2-naphthalenecarboximidamide]

Source: patent publication EP1276722B1, “NAPHTHAMIDINE UROKINASE INHIBITORS” (ABBOTT LABORATORIES, priority 2000, dated 2001)
